Test results as given in the NIST ThermoML archive (doi:10.1021/je200788z).
± gives the expanded uncertainty stated by the source.

How the values were obtained:
[1] = refractive index (Na D-line) (dimensionless); settings: 101.33 kPa, Liquid, Standard Abbe refractometry
[2] = 101.33 kPa, Liquid; for speed of sound: Sing-around technique in a fixed-path interferometer; for mass density: Vibrating tube method

CC(C)OC(=O)C[NH3+].CCCCCCCCCCCCOS(=O)(=O)[O-] [2-isopropoxy-2-oxoethan-1-aminium dodecyl sulfate]
Settings	mass density, [2] [kg/m3]	refractive index, [1]	speed of sound, [2] [m/s]
303.15 K	1025.14 ± 5.7	1.463 ± 0.0011	1373.4 ± 5
308.15 K	1021.37 ± 5.6	1.4603 ± 0.0011	1355.1 ± 5
313.15 K	1017.68 ± 5.6	1.4576 ± 0.0011	1337.6 ± 5
318.15 K	1014.16 ± 5.5	1.4549 ± 0.0011	1320.9 ± 5
323.15 K	1010.65 ± 5.5	1.4529 ± 0.0011	1305 ± 5
328.15 K	1007.14 ± 5.5	1.4497 ± 0.0011	1289.6 ± 5
333.15 K	1003.63 ± 5.4	1.4465 ± 0.0011	1274.6 ± 5
338.15 K	1000.12 ± 5.4	1.4441 ± 0.0011	1259.9 ± 5
343.15 K	996.58 ± 5.4	1.4414 ± 0.0011	1245.8 ± 5

CC(C)COC(=O)[C@@H]1CCC[NH2+]1.CCCCCCCCCCCCOS(=O)(=O)[O-] [(S)-2-(isobutoxycarbonyl)pyrrolidinium dodecyl sulfate]
Settings	mass density, [2] [kg/m3]	refractive index, [1]	speed of sound, [2] [m/s]
288.15 K	1043.22 ± 5.9	1.4648 ± 0.0011	1460.2 ± 5.1
293.15 K	1039.54 ± 5.8	1.4623 ± 0.0011	1445.2 ± 5.1
298.15 K	1035.88 ± 5.8	1.4598 ± 0.0011	1429.2 ± 5.1
303.15 K	1032.22 ± 5.8	1.4574 ± 0.0011	1413 ± 5
308.15 K	1028.57 ± 5.7	1.4549 ± 0.0011	1397.2 ± 5
313.15 K	1024.92 ± 5.7	1.4524 ± 0.0011	1381.5 ± 5
318.15 K	1021.27 ± 5.6	1.45 ± 0.0011	1366.1 ± 5
323.15 K	1017.72 ± 5.6	1.4477 ± 0.0011	1349.1 ± 5
328.15 K	1014.21 ± 5.5	1.4452 ± 0.0011	1332.9 ± 5
333.15 K	1010.85 ± 5.5	1.4427 ± 0.0011	1316.8 ± 5
338.15 K	1007.61 ± 5.5	1.4401 ± 0.0011	1301.5 ± 5
343.15 K	1004.98 ± 5.5	1.4378 ± 0.0011	1286.2 ± 5

CC(C)OC(=O)CC[C@H]([NH3+])C(=O)OC(C)C.CCCCCCCCCCCCOS(=O)(=O)[O-]
Settings	mass density, [2] [kg/m3]	refractive index, [1]	speed of sound, [2] [m/s]
288.15 K	1057.9 ± 6.1	1.4575 ± 0.0011	1439.7 ± 5.1
293.15 K	1054.11 ± 6	1.4559 ± 0.0011	1412.8 ± 5.1
298.15 K	1050.31 ± 6	1.4542 ± 0.0011	1389 ± 5
303.15 K	1046.47 ± 5.9	1.4528 ± 0.0011	1367.6 ± 5
308.15 K	1042.57 ± 5.9	1.4509 ± 0.0011	1347.9 ± 5
313.15 K	1038.6 ± 5.8	1.4493 ± 0.0011	1329.5 ± 5
318.15 K	1034.81 ± 5.8	1.4476 ± 0.0011	1312 ± 5
323.15 K	1031.13 ± 5.8	1.4461 ± 0.0011	1295.3 ± 5
328.15 K	1027.46 ± 5.7	1.4442 ± 0.0011	1279.2 ± 5
333.15 K	1023.79 ± 5.7	1.4429 ± 0.0011	1263.5 ± 5
338.15 K	1021.2 ± 5.6	1.441 ± 0.0011	1248.3 ± 5
343.15 K	1016.44 ± 5.6	1.4392 ± 0.0011	1233.6 ± 5

CC(C)OC(=O)[C@@H]1CCC[NH2+]1.CCCCCCCCCCCCOS(=O)(=O)[O-] [(S)-2-(isopropoxycarbonyl)pyrrolidin-1-ium dodecyl sulfate]
Settings	mass density, [2] [kg/m3]	refractive index, [1]	speed of sound, [2] [m/s]
288.15 K	1054.33 ± 6	1.4575 ± 0.0011	1455.5 ± 5.1
293.15 K	1050.45 ± 6	1.4559 ± 0.0011	1436.8 ± 5.1
298.15 K	1046.8 ± 5.9	1.4542 ± 0.0011	1419.2 ± 5.1
303.15 K	1043.15 ± 5.9	1.4525 ± 0.0011	1402.4 ± 5
308.15 K	1039.52 ± 5.8	1.451 ± 0.0011	1386.3 ± 5
313.15 K	1035.89 ± 5.8	1.4492 ± 0.0011	1370.7 ± 5
318.15 K	1032.27 ± 5.8	1.4478 ± 0.0011	1355.5 ± 5
323.15 K	1028.73 ± 5.7	1.4461 ± 0.0011	1340.6 ± 5
328.15 K	1025.22 ± 5.7	1.4446 ± 0.0011	1326 ± 5
333.15 K	1021.7 ± 5.6	1.4432 ± 0.0011	1311.7 ± 5
338.15 K	1018.2 ± 5.6	1.4414 ± 0.0011	1297.6 ± 5
343.15 K	1014.69 ± 5.6	1.4398 ± 0.0011	1284 ± 5

CC(C)COC(=O)[C@@H](N)C(C)C.CCCCCCCCCCCCOS(=O)(=O)O [isobutyl L-valinate dodecyl sulfate]
Settings	refractive index, [1]	speed of sound, [2] [m/s]
288.15 K	1.4568 ± 0.0011	1434.4 ± 5.1
293.15 K	1.4555 ± 0.0011	1421.3 ± 5.1
298.15 K	1.4538 ± 0.0011	1408.6 ± 5
303.15 K	1.4519 ± 0.0011	1394.6 ± 5
308.15 K	1.4505 ± 0.0011	1379.9 ± 5
313.15 K	1.4488 ± 0.0011	1365.5 ± 5
318.15 K	1.4471 ± 0.0011	1350.9 ± 5
323.15 K	1.4455 ± 0.0011	1335.5 ± 5
328.15 K	1.4438 ± 0.0011	1318.1 ± 5
333.15 K	1.4422 ± 0.0011	1299.9 ± 5
338.15 K	1.4406 ± 0.0011	1275 ± 5
343.15 K	1.439 ± 0.0011	1249.5 ± 5

CC(C)COC(=O)CC[C@H]([NH3+])C(=O)OCC(C)C.CCCCCCCCCCCCOS(=O)(=O)[O-]
Settings	mass density, [2] [kg/m3]	refractive index, [1]	speed of sound, [2] [m/s]
323.15 K	1014.45 ± 5.6	1.4472 ± 0.0011	1330.6 ± 5
328.15 K	1010.78 ± 5.5	1.4453 ± 0.0011	1314.4 ± 5
333.15 K	1007.13 ± 5.5	1.4432 ± 0.0011	1299.9 ± 5
338.15 K	1003.54 ± 5.4	1.4414 ± 0.0011	1284.2 ± 5
343.15 K	1000 ± 5.4	1.4393 ± 0.0011	1270.5 ± 5

CC(C)COC(=O)[C@H](C)[NH3+].CCCCCCCCCCCCOS(=O)(=O)[O-] [(S)-1-isobutoxy-1-oxopropan-2-aminium dodecyl sulfate]
Settings	mass density, [2] [kg/m3]	refractive index, [1]	speed of sound, [2] [m/s]
288.15 K	1049.18 ± 6	1.456 ± 0.0011	1447.6 ± 5.1
293.15 K	1045.48 ± 5.9	1.454 ± 0.0011	1423.6 ± 5.1
298.15 K	1041.75 ± 5.9	1.452 ± 0.0011	1401.9 ± 5
303.15 K	1038.02 ± 5.8	1.45 ± 0.0011	1381.6 ± 5
308.15 K	1034.13 ± 5.8	1.4479 ± 0.0011	1362.5 ± 5
313.15 K	1030.13 ± 5.7	1.4458 ± 0.0011	1343.9 ± 5
318.15 K	1026.31 ± 5.7	1.4437 ± 0.0011	1325.8 ± 5
323.15 K	1022.6 ± 5.7	1.4418 ± 0.0011	1308.1 ± 5
328.15 K	1019.08 ± 5.6	1.4397 ± 0.0011	1291.2 ± 5
333.15 K	1015.6 ± 5.6	1.4377 ± 0.0011	1275.8 ± 5
338.15 K	1012.14 ± 5.5	1.4354 ± 0.0011	1261 ± 5
343.15 K	1008.75 ± 5.5	1.4336 ± 0.0011	1246.6 ± 5

CC(C)COC(=O)C[NH3+].CCCCCCCCCCCCOS(=O)(=O)[O-] [2-isobutoxy-2-oxoethan-1-aminium dodecyl sulfate]
Settings	mass density, [2] [kg/m3]	refractive index, [1]	speed of sound, [2] [m/s]
303.15 K	1013.62 ± 5.5	1.4624 ± 0.0011	1372.1 ± 5
308.15 K	1009.88 ± 5.5	1.4592 ± 0.0011	1355.2 ± 5
313.15 K	1006.14 ± 5.5	1.456 ± 0.0011	1339 ± 5
318.15 K	1002.38 ± 5.4	1.4527 ± 0.0011	1323 ± 5
323.15 K	998.71 ± 5.4	1.4494 ± 0.0011	1307.6 ± 5
328.15 K	995.15 ± 5.3	1.4462 ± 0.0011	1292.5 ± 5
333.15 K	991.89 ± 5.3	1.443 ± 0.0011	1277.6 ± 5
338.15 K	988.22 ± 5.3	1.4397 ± 0.0011	1263 ± 5
343.15 K	984.53 ± 5.2	1.4365 ± 0.0011	1248.7 ± 5

CC(C)OC(=O)[C@@H]([NH3+])C(C)C.CCCCCCCCCCCCOS(=O)(=O)[O-]
Settings	mass density, [2] [kg/m3]	refractive index, [1]	speed of sound, [2] [m/s]
288.15 K	1033.35 ± 5.8	1.4555 ± 0.0011	1438.4 ± 5.1
293.15 K	1029.74 ± 5.7	1.4541 ± 0.0011	1418.5 ± 5.1
298.15 K	1026.11 ± 5.7	1.4527 ± 0.0011	1400.5 ± 5
303.15 K	1022.44 ± 5.7	1.4514 ± 0.0011	1382.9 ± 5
308.15 K	1018.71 ± 5.6	1.4495 ± 0.0011	1365.9 ± 5
313.15 K	1014.93 ± 5.6	1.4483 ± 0.0011	1349.4 ± 5
318.15 K	1011.36 ± 5.5	1.4465 ± 0.0011	1333.2 ± 5
323.15 K	1007.86 ± 5.5	1.445 ± 0.0011	1317.4 ± 5
328.15 K	1004.37 ± 5.4	1.4434 ± 0.0011	1301.9 ± 5
333.15 K	1000.88 ± 5.4	1.4419 ± 0.0011	1286.6 ± 5
338.15 K	997.39 ± 5.4	1.4403 ± 0.0011	1270.4 ± 5
343.15 K	993.9 ± 5.3	1.4388 ± 0.0011	1254.9 ± 5
